# Data taken from US20260022142A1, “MACROCYCLIC IMMUNOMODULATORS” (Bristol-Myers Squibb Company, priority 2022, published 2026).
# Bridge positions count the residues as written; N and C are the ends. Square brackets hold non-standard residues; d marks the D form. Peptide text beside a SMILES is read from it. * marks the point of attachment. ξ: configuration not given here. Bip = N[C@@H](Cc1ccc(-c2ccccc2)cc1)C(=O)O; Phe(3-Me) = Cc1cccc(C[C@H](N)C(=O)O)c1; 4Pal = N[C@@H](Cc1ccncc1)C(=O)O; 3Thi = N[C@@H](Cc1ccsc1)C(=O)O; Cha = N[C@@H](CC1CCCCC1)C(=O)O; Cit = NC(=O)NCCC[C@H](N)C(=O)O; Ile(3ξ) = CCC(C)[C@H](N)C(=O)O; Thr(3ξ) = CC(O)[C@H](N)C(=O)O; Carboxymethyl = O=C(O)C*; Orn = NCCC[C@H](N)C(=O)O; Aun = NCCCCCCCCCCC(=O)O; Dab = NCC[C@H](N)C(=O)O; Dap = NC[C@H](N)C(=O)O; AEEA = NCCOCCOCC(=O)O
# Biological target: T1, PD-1/PD-L1 interaction (PE-labeled human PD-L1-Ig binding to Jurkat cell line over-expressing human PD-1) (Homo sapiens, UniProt Q15116)
# T1 construct: expressed in transfected cells; host or cells: Jurkat
# Assay: Jurkat-PD-1 Cell Binding High-Content Screening Assay (CBA)
# Format: cell-based
# Conditions: Jurkat cell line over-expressing human PD-1; PE-labeled PD-L1-Ig 20 nM final; read-out: Jurkat hPD1-PDL1 IC50
# Procedure, shortened: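 Binding of fluorescent PD-L1-Ig (phycoerythrin on Ig tag, 20 nM final, 1 h) measured by high-content imaging of fixed, Hoechst-counterstained Jurkat-hPD-1 cells. Compound added 2 h at 37° C beforehand, in DMEM with 10% fetal calf serum.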
# T1 sequence (Q15116 25-288): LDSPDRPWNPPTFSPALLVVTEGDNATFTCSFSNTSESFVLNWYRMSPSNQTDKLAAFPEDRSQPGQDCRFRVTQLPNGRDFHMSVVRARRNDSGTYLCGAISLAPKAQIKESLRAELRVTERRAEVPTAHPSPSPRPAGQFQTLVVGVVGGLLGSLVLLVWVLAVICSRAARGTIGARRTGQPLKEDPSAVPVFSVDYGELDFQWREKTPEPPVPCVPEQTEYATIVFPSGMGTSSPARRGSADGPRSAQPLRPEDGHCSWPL
row,Compound,IC50
1,CC(C)C[C@H]1NC(=O)[C@H](CCN)NC(=O)[C@H](C(C)C)NC(=O)[C@H](Cc2ccc(-c3ccccc3)cc2)NC(=O)[C@H](C(C)C)NC(=O)[C@H](Cc2c[nH]c3ccccc23)NC(=O)[C@H](CC(=O)O)NC(=O)[C@H](Cc2ccc(OCC(=O)O)cc2)NC(=O)[C@H](Cc2ccsc2)NC(=O)CSC[C@@H](C(=O)N[C@@H](CCCN)C(=O)NCCCCCCCCCCC(=O)O)NC(=O)[C@H](C(C)O)NC(=O)[C@H](C(C)C)NC(=O)[C@H](CC2CCCCC2)NC(=O)[C@H](CCN)NC1=O (stereo partly drawn) [Compound 3281] ({CH2CO}-[3Thi]Y(Carboxymethyl)DWV[Bip]V[Dab][dL][Dab][Cha]V[Thr(3ξ)]C[Orn][Aun]-OH; thioether N-14),98.7 nM
2,CC(C)C[C@H]1NC(=O)[C@H](CCN)NC(=O)[C@H](C(C)C)NC(=O)[C@H](Cc2ccc(-c3ccccc3)cc2)NC(=O)[C@H](C(C)C)NC(=O)[C@H](Cc2c[nH]c3ccccc23)NC(=O)[C@H](CC(=O)O)NC(=O)[C@H](Cc2ccc(OCC(=O)O)cc2)NC(=O)[C@H](Cc2ccsc2)NC(=O)CSC[C@@H](C(=O)N[C@@H](CCN)C(=O)NCCCCCCCCCCC(=O)O)NC(=O)[C@H](C(C)O)NC(=O)[C@H](C(C)C)NC(=O)[C@H](CC2CCCCC2)NC(=O)[C@H](CCN)NC1=O (stereo partly drawn) [Compound 3282] ({CH2CO}-[3Thi]Y(Carboxymethyl)DWV[Bip]V[Dab][dL][Dab][Cha]V[Thr(3ξ)]C[Dab][Aun]-OH; thioether N-14),119 nM
3,CC(C)C[C@H]1NC(=O)[C@H](CCN)NC(=O)[C@H](C(C)C)NC(=O)[C@H](Cc2ccc(-c3ccccc3)cc2)NC(=O)[C@H](C(C)C)NC(=O)[C@H](Cc2c[nH]c3ccccc23)NC(=O)[C@H](CC(=O)O)NC(=O)[C@H](Cc2ccc(OCC(=O)O)cc2)NC(=O)[C@H](Cc2ccsc2)NC(=O)CSC[C@@H](C(=O)NCCOCCOCC(=O)N[C@@H](CCN)C(=O)NCCCCCCCCCCC(=O)O)NC(=O)[C@H](CCCNC(=N)N)NC(=O)[C@H](C(C)C)NC(=O)[C@H](CC2CCCCC2)NC(=O)[C@H](CCN)NC1=O [Compound 3283] ({CH2CO}-[3Thi]Y(Carboxymethyl)DWV[Bip]V[Dab][dL][Dab][Cha]VRC[AEEA][Dab][Aun]-OH; thioether N-14),13.8 nM
4,CC(C)C[C@H]1NC(=O)[C@H](CCN)NC(=O)[C@H](C(C)C)NC(=O)[C@H](Cc2ccc(-c3ccccc3)cc2)NC(=O)[C@H](C(C)C)NC(=O)[C@H](Cc2c[nH]c3ccccc23)NC(=O)[C@H](CC(=O)O)NC(=O)[C@H](Cc2ccc(OCC(=O)O)cc2)NC(=O)[C@H](Cc2ccsc2)NC(=O)CSC[C@@H](C(=O)NCCOCCOCC(=O)N[C@@H](CCN)C(=O)NCCCCCCCCCCC(=O)O)NC(=O)[C@H](CCCN)NC(=O)[C@H](C(C)C)NC(=O)[C@H](CC2CCCCC2)NC(=O)[C@H](CCN)NC1=O [Compound 3284] ({CH2CO}-[3Thi]Y(Carboxymethyl)DWV[Bip]V[Dab][dL][Dab][Cha]V[Orn]C[AEEA][Dab][Aun]-OH; thioether N-14),10.2 nM
5,CCC(C)[C@@H]1NC(=O)[C@H](Cc2ccc(-c3ccccc3)cc2)NC(=O)[C@H](C(C)C)NC(=O)[C@H](Cc2c[nH]c3ccccc23)NC(=O)[C@H](CC(=O)O)NC(=O)[C@H](Cc2ccc(OCC(=O)O)cc2)NC(=O)[C@H](CCCNC(=N)N)NC(=O)CSC[C@@H](C(=O)N[C@H](CC(N)=O)C(=O)NCCCCCCCCCCC(=O)O)NC(=O)[C@H](CCCN)NC(=O)[C@H](C(C)C)NC(=O)[C@H](CC2CCCCC2)NC(=O)[C@H](CCN)NC(=O)[C@@H](CC(C)C)NC(=O)[C@H](CCN)NC1=O (stereo partly drawn) [Compound 3285] ({CH2CO}-RY(Carboxymethyl)DWV[Bip][Ile(3ξ)][Dab][dL][Dab][Cha]V[Orn]C[dN][Aun]-OH; thioether N-14),9.3 nM
6,CC(C)C[C@H]1NC(=O)[C@H](CCN)NC(=O)[C@H](C(C)C)NC(=O)[C@H](Cc2ccc(-c3ccccc3)cc2)NC(=O)[C@H](C(C)C)NC(=O)[C@H](Cc2c[nH]c3ccccc23)NC(=O)[C@H](CC(=O)O)NC(=O)[C@H](Cc2ccc(OCC(=O)O)cc2)NC(=O)[C@H](Cc2ccsc2)NC(=O)CSC[C@@H](C(=O)N[C@H](CC(N)=O)C(=O)NCCCCCCCCCCC(=O)O)NC(=O)[C@H](CCCCN)NC(=O)[C@H](C(C)C)NC(=O)[C@H](CC2CCCCC2)NC(=O)[C@H](CCN)NC1=O [Compound 3286] ({CH2CO}-[3Thi]Y(Carboxymethyl)DWV[Bip]V[Dab][dL][Dab][Cha]VKC[dN][Aun]-OH; thioether N-14),8.3 nM
7,CC(C)C[C@H]1NC(=O)[C@H](CCCN)NC(=O)[C@H](C(C)C)NC(=O)[C@H](Cc2ccc(-c3ccccc3)cc2)NC(=O)[C@H](C(C)C)NC(=O)[C@H](Cc2c[nH]c3ccccc23)NC(=O)[C@H](CC(=O)O)NC(=O)[C@H](Cc2ccc(OCC(=O)O)cc2)NC(=O)[C@H](CCCNC(=N)N)NC(=O)CSC[C@@H](C(=O)N[C@@H](CCN)C(=O)NCCCCCCCCCCC(=O)O)NC(=O)[C@H](CN)NC(=O)[C@H](C(C)C)NC(=O)[C@H](CC2CCCCC2)NC(=O)[C@H](CCN)NC1=O [Compound 3287] ({CH2CO}-RY(Carboxymethyl)DWV[Bip]V[Orn][dL][Dab][Cha]V[Dap]C[Dab][Aun]-OH; thioether N-14),10.8 nM
8,CC(C)C[C@H]1NC(=O)[C@H](CCCN)NC(=O)[C@H](C(C)C)NC(=O)[C@H](Cc2ccc(-c3ccccc3)cc2)NC(=O)[C@H](C(C)C)NC(=O)[C@H](Cc2c[nH]c3ccccc23)NC(=O)[C@H](CC(=O)O)NC(=O)[C@H](Cc2ccc(OCC(=O)O)cc2)NC(=O)[C@H](CCCNC(=N)N)NC(=O)CSC[C@@H](C(=O)N[C@@H](CCN)C(=O)NCCCCCCCCCCC(=O)O)NC(=O)[C@H](CCN)NC(=O)[C@H](C(C)C)NC(=O)[C@H](CC2CCCCC2)NC(=O)[C@H](CCN)NC1=O [Compound 3288] ({CH2CO}-RY(Carboxymethyl)DWV[Bip]V[Orn][dL][Dab][Cha]V[Dab]C[Dab][Aun]-OH; thioether N-14),13.7 nM
9,CC(C)C[C@H]1NC(=O)[C@H](CCCN)NC(=O)[C@H](C(C)C)NC(=O)[C@H](Cc2ccc(-c3ccccc3)cc2)NC(=O)[C@H](C(C)C)NC(=O)[C@H](Cc2c[nH]c3ccccc23)NC(=O)[C@H](CC(=O)O)NC(=O)[C@H](Cc2ccc(OCC(=O)O)cc2)NC(=O)[C@H](CCCNC(=N)N)NC(=O)CSC[C@@H](C(=O)N[C@@H](CCN)C(=O)NCCCCCCCCCCC(=O)O)NC(=O)[C@H](CCCN)NC(=O)[C@H](C(C)C)NC(=O)[C@H](CC2CCCCC2)NC(=O)[C@H](CCN)NC1=O [Compound 3289] ({CH2CO}-RY(Carboxymethyl)DWV[Bip]V[Orn][dL][Dab][Cha]V[Orn]C[Dab][Aun]-OH; thioether N-14),13 nM
10,CC(C)C[C@H]1NC(=O)[C@H](CCCN)NC(=O)[C@H](C(C)C)NC(=O)[C@H](Cc2ccc(-c3ccccc3)cc2)NC(=O)[C@H](C(C)C)NC(=O)[C@H](Cc2c[nH]c3ccccc23)NC(=O)[C@H](CC(=O)O)NC(=O)[C@H](Cc2c[nH]cn2)NC(=O)[C@H](CCCNC(=N)N)NC(=O)CSC[C@@H](C(=O)N[C@@H](CCN)C(=O)NCCCCCCCCCCC(=O)O)NC(=O)[C@H](CCCCN)NC(=O)[C@H](C(C)C)NC(=O)[C@H](CC2CCCCC2)NC(=O)[C@H](CCN)NC1=O [Compound 3290] ({CH2CO}-RHDWV[Bip]V[Orn][dL][Dab][Cha]VKC[Dab][Aun]-OH; thioether N-14),39.5 nM
11,Cc1cccc(C[C@@H]2NC(=O)[C@H](CC(=O)O)NC(=O)[C@H](Cc3ccc(OCC(=O)O)cc3)NC(=O)[C@H](CCCNC(=N)N)NC(=O)CSC[C@@H](C(=O)N[C@@H](CCN)C(=O)NCCCCCCCCCCC(=O)O)NC(=O)[C@H](CCCNC(N)=O)NC(=O)[C@H](C(C)C)NC(=O)[C@H](CC3CCCCC3)NC(=O)[C@H](CCN)NC(=O)[C@@H](CC(C)C)NC(=O)[C@H](CCCN)NC(=O)[C@H](C(C)C)NC(=O)[C@H](Cc3ccc(-c4ccccc4)cc3)NC(=O)[C@H](C(C)C)NC2=O)c1 [Compound 3291] ({CH2CO}-RY(Carboxymethyl)D[Phe(3-Me)]V[Bip]V[Orn][dL][Dab][Cha]V[Cit]C[Dab][Aun]-OH; thioether N-14),6.1 nM
12,Cc1cccc(C[C@@H]2NC(=O)[C@H](CC(=O)O)NC(=O)[C@H](Cc3ccc(OCC(=O)O)cc3)NC(=O)[C@H](CCCNC(=N)N)NC(=O)CSC[C@@H](C(=O)N[C@@H](CCN)C(=O)NCCCCCCCCCCC(=O)O)NC(=O)[C@H](CCCN)NC(=O)[C@H](C(C)C)NC(=O)[C@H](CC3CCCCC3)NC(=O)[C@H](CCN)NC(=O)[C@@H](CC(C)C)NC(=O)[C@H](CCCN)NC(=O)[C@H](C(C)C)NC(=O)[C@H](Cc3ccc(-c4ccccc4)cc3)NC(=O)[C@H](C(C)C)NC2=O)c1 [Compound 3292] ({CH2CO}-RY(Carboxymethyl)D[Phe(3-Me)]V[Bip]V[Orn][dL][Dab][Cha]V[Orn]C[Dab][Aun]-OH; thioether N-14),12 nM
13,Cc1cccc(C[C@@H]2NC(=O)[C@H](CC(=O)O)NC(=O)[C@H](Cc3ccc(OCC(=O)O)cc3)NC(=O)[C@H](CCCNC(=N)N)NC(=O)CSC[C@@H](C(=O)NCCOCCOCC(=O)N[C@@H](CCN)C(=O)NCCCCCCCCCCC(=O)O)NC(=O)[C@H](CCCCN)NC(=O)[C@H](C(C)C)NC(=O)[C@H](CC3CCCCC3)NC(=O)[C@H](CN)NC(=O)[C@@H](CC(C)C)NC(=O)[C@H](CCCN)NC(=O)[C@H](C(C)C)NC(=O)[C@H](Cc3ccc(-c4ccccc4)cc3)NC(=O)[C@H](C(C)C)NC2=O)c1 [Compound 3293] ({CH2CO}-RY(Carboxymethyl)D[Phe(3-Me)]V[Bip]V[Orn][dL][Dap][Cha]VKC[AEEA][Dab][Aun]-OH; thioether N-14),5 nM
14,CC(C)C[C@H]1NC(=O)[C@H](CCCN)NC(=O)[C@H](C(C)C)NC(=O)[C@H](Cc2ccc(-c3ccccc3)cc2)NC(=O)[C@H](C(C)C)NC(=O)[C@H](Cc2c[nH]c3ccccc23)NC(=O)[C@H](CC(=O)O)NC(=O)[C@H](Cc2ccc(OCC(=O)O)cc2)NC(=O)[C@H](Cc2ccncc2)NC(=O)CSC[C@@H](C(=O)N[C@@H](CCN)C(=O)NCCCCCCCCCCC(=O)O)NC(=O)[C@H](CN)NC(=O)[C@H](C(C)C)NC(=O)[C@H](CC2CCCCC2)NC(=O)[C@H](CCN)NC1=O [Compound 3294] ({CH2CO}-[4Pal]Y(Carboxymethyl)DWV[Bip]V[Orn][dL][Dab][Cha]V[Dap]C[Dab][Aun]-OH; thioether N-14),15.5 nM
